Measurements reported in ChEMBL document CHEMBL1128884, “Selective inhibition of the tyrosine kinase pp60src by analogs of 5,10-dihydropyrimido[4,5-b]quinolin-4(1H)-one” (Bioorg Med Chem Lett, 1995).
pIC50: −log10 of the molar value.

Legend:
[1] = target: cAMP-dependent protein kinase (PKA) (Homo sapiens, UniProt P22694+P17612+P22612); assay: Inhibition of cAMP-dependent kinase (Protein kinase A); assay type: protein assay
[2] = target: Proto-oncogene tyrosine-protein kinase Src (Homo sapiens, UniProt P12931); assay: Inhibition of cellular oncogene pp60 c-src
[3] = target: Epidermal growth factor receptor (Homo sapiens, UniProt P00533); assay: Inhibition of epidermal growth factor receptor (EGFR)
Chain of Epidermal growth factor receptor (P00533 whole entry): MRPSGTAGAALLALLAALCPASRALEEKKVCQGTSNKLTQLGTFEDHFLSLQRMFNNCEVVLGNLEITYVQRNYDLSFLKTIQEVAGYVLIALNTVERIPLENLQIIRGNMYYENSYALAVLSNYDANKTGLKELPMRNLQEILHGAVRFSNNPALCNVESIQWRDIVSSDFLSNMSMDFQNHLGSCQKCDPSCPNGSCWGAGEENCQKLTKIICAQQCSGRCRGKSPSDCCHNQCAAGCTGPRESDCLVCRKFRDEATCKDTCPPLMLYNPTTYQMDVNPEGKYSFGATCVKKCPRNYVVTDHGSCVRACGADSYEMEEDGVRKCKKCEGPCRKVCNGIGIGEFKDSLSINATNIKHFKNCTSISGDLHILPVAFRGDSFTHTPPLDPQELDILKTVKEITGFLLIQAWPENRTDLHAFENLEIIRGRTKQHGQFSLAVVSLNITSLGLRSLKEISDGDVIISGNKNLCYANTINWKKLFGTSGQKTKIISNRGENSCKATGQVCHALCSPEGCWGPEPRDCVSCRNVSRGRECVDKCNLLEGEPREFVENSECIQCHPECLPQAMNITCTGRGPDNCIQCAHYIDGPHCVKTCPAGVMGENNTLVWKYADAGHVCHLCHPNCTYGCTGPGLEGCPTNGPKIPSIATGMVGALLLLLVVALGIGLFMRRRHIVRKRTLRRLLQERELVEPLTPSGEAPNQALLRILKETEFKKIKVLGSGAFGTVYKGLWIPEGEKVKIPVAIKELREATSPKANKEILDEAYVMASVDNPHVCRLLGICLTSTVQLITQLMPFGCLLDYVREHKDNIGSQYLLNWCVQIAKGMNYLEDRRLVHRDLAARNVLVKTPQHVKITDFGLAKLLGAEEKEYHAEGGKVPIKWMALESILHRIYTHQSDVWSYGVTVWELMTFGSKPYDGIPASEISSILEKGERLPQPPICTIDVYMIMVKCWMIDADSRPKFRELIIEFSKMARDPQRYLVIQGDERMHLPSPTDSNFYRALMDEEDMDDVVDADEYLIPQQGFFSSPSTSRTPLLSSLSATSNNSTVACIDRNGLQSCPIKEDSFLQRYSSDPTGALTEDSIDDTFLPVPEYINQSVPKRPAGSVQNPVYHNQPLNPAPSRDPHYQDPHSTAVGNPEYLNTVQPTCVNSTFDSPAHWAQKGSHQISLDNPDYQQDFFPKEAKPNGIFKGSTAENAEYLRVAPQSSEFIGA

Chain of Proto-oncogene tyrosine-protein kinase Src (P12931 2-536 limits assumed): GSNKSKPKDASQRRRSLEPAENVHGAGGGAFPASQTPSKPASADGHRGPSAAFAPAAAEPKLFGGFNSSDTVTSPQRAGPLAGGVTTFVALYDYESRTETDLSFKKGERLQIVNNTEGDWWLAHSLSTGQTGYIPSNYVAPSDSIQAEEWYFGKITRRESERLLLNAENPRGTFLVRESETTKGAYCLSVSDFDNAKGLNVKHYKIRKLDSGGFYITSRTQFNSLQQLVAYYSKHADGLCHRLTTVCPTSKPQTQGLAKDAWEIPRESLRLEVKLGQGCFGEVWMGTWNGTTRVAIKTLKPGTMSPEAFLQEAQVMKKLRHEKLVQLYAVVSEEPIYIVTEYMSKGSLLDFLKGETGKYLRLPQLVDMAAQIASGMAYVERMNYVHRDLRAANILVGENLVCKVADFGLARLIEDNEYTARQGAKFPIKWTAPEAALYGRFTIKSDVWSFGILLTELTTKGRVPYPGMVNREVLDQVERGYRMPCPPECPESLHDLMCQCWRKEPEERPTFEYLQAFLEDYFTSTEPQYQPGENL

Row | Structure (SMILES) | IC50 [1] [µM] | pIC50 [2] | pIC50 [3]
1 | CCN1c2ccccc2Cc2c(O)ncnc21 | > 960 | 3.26 | –
2 | Oc1[nH]cnc2nc3ccccc3c1-2 | – | 3.53 | –
3 | COc1cc2c(cc1OC)Nc1ncn(CCN3CCOCC3)c(=O)c1C2 | > 1000 | 3.98 | –
4 | Oc1cc(Nc2ccccc2)ncn1 | > 4000 | 2.81 | –

Compounds with a higher pIC50 [2], results first:

Row | IC50 [1] [µM] | pIC50 [2] | pIC50 [3] | Structure (SMILES)
5 | > 3000 | 6.30 | – | COc1ccc2c(c1)Nc1ncnc(O)c1C2
6 | > 3000 | 5.43 | – | COc1ccc2c(c1)Cc1c(O)ncnc1N2
7 | > 3000 | 6.30 | 4.12 | COc1cc2c(cc1OC)Nc1ncnc(O)c1C2
8 | > 3000 | 5.04 | – | Oc1ncnc2c1Cc1ccccc1N2
9 | > 3000 | 4.42 | – | CCc1nc(O)c2c(n1)Nc1ccccc1C2
10 | > 750 | 4.49 | – | COc1cc2cc3c(O)ncnc3nc2cc1OC
11 | > 3000 | 5.92 | 3.80 | COc1cc2c(cc1OC)Nc1ncn(C)c(=O)c1C2
